The target of the test is T1, USP28 (His-tagged USP28-FL-mammalian) (Homo sapiens, UniProt Q96RU2).
T1 construct: Expression of USP28 (1-1077)-TEV-6*His (pTT5 vector); made in house; host or cells: Expi293f cells (pTT5 vector)
T1 sequence (Q96RU2 1-1077): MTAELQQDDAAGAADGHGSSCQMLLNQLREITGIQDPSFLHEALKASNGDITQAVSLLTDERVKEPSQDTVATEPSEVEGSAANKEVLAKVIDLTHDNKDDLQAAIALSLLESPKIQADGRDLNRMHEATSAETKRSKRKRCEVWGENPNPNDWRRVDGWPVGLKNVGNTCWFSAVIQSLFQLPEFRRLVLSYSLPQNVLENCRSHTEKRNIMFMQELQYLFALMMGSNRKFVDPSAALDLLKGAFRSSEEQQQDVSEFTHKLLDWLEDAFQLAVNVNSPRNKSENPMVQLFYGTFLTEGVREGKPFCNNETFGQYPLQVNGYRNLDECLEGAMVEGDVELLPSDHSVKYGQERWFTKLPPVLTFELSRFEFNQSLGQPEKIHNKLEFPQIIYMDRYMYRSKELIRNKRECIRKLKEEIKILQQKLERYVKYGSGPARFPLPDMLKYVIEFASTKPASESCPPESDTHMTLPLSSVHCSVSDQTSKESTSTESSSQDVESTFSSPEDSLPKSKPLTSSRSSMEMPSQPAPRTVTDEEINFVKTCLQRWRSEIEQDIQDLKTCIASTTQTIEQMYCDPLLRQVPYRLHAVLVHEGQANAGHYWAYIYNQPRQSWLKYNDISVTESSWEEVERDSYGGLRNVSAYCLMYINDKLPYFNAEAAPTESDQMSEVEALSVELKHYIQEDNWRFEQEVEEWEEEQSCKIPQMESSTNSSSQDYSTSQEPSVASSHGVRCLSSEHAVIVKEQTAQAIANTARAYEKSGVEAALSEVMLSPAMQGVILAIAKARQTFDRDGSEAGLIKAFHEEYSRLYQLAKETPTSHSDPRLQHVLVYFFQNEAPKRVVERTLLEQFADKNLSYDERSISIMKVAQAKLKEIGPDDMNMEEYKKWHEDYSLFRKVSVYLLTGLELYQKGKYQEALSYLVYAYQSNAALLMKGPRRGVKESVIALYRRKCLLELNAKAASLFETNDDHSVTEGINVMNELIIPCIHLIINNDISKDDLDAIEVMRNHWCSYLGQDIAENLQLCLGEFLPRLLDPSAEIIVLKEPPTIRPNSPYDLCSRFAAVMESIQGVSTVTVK
The experiment in a line: Ubiquitin-Rhodamine 110 Assay for USP28 Activity, Example A-1(a). Format: biochemical. As to conditions: Ubiquitin-Rhodamine 110 assay, Example A-1(a); read-out: USP28 A-1(a) IC50 range. The gist of the method: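 IC50 from 4-parameter logistic fit of percent inhibition versus no-enzyme and DMSO controls; compounds 25 μM to 1.3 nM, 3-fold. Ub-Rh110 cleavage (25 nM, below Km) by […] mammalian-expressed USP28-FL-His ran 45 min at room temperature, stopped with 10 mM citric acid, read ex 485/em 535.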

One may read the IC50 as the midpoint of a concentration-inhibition curve. Consider `CO[C@H]1CN(c2cc(F)c3c(c2C#N)OC[C@H](NC(=O)c2sc4nc(C)cnc4c2N)C3)C[C@@H]1N` [Example 174, 7-amino-N-[(3R)-7-[(3S,4S)-3-amino-4-methoxypyrrolidin-1-yl]-8-cyano-5-fluoro-3,4-dihydro-2H-1-benzopyran-3-yl]-3-methylthieno[2,3-b]pyrazine-6-carboxamide], for which the concentration for half-maximal inhibition (IC50) lay in the range of 200 to 2000 nM.
The value for `CO[C@H]1CN(c2cc(F)c3c(c2C#N)OC[C@H](NC(=O)c2sc4nc(C)ccc4c2N)C3)C[C@@H]1N` [Example 175, 3-amino-N-[(3R)-7-[(3S,4S)-3-amino-4-methoxypyrrolidin-1-yl]-8-cyano-5-fluoro-3,4-dihydro-2H-1-benzopyran-3-yl]-6-methylthieno[2,3-b]pyridine-2-carboxamide] was 50 to 200 nM; that for `CO[C@H]1CN(c2cc3c(cc2C#N)C[C@@H](NC(=O)c2sc4nc(C)cnc4c2N)CO3)C[C@@H]1N` [Example 176, 7-amino-N-[(3R)-7-[(3S,4S)-3-amino-4-methoxypyrrolidin-1-yl]-6-cyano-3,4-dihydro-2H-1-benzopyran-3-yl]-3-methylthieno[2,3-b]pyrazine-6-carboxamide] was 1 to 50 nM.

The values above are taken from US11524966B1 (Valo Early Discovery, Inc., priority 2017, dated 2022).
